Drawing on PubChem BioAssay AID1259411 (Chemical Carcinogenesis Research Information System (CCRIS), 2018), this text covers carcinogen call for eight molecules.

SMILES strings stand for the structures. Calls of active or inactive are those of the source. The rule behind the calls is not given here.

The subject of this data set is rodent carcinogenicity bioassays, tumor incidence. Nature of the data set: CCRIS carcinogenicity studies. The gist of the method: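 Archive of carcinogenicity, mutagenicity, tumor promotion and tumor inhibition results drawn from journals, NCI reports and other sources, expert-reviewed; covers 1985-2011 and is no longer updated.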

`COc1cc(-c2ccc(N=C=O)c(OC)c2)ccc1N=C=O`: the carcinogen call is “inactive; negative” (Species: MOUSE, Strain/Sex: B6C3F1/FEMALE, Route: ORAL, Dose: 0, 22000, 44000 PPM IN DIET FOR 78 WK (STUDY DURATION: 103 WK), Dose: 0, 22000, 44000 PPM IN DIET FOR 78 WK (STUDY DURATION: 103 WK)); “inactive; negative” (Species: MOUSE, Strain/Sex: B6C3F1/MALE, Route: ORAL, Dose: 0, 22000, 44000 PPM IN DIET FOR 78 WK (STUDY DURATION: 103 WK), Dose: 0, 22000, 44000 PPM IN DIET FOR 78 WK (STUDY DURATION: 103 WK)); “active; positive” (Species: RAT, Strain/Sex: F344/FEMALE, Route: GAVAGE, ORAL, Dose: 0, 1500, 3000 MG/KG FOR 22 WK, THEN 22000, 44000 PPM IN DIET FOR 56 WK (STUDY DURATION: 104 WK), Dose: 0, 1500, 3000 MG/KG FOR 22 WK, THEN 22000, 44000 PPM IN DIET FOR 56 WK (STUDY DURATION: 104 WK), Tumor Site: Type of Lesion: HEMATOPOIETIC SYSTEM (LEUKEMIA), UTERUS: ENDOMETRIAL STROMAL POLYP, EAR (ZYMBAL GLAND AND SKIN OF EAR): SQUAMOUS CELL CA, Tumor Site: Type of Lesion: HEMATOPOIETIC SYSTEM (LEUKEMIA), UTERUS: ENDOMETRIAL STROMAL POLYP, EAR (ZYMBAL GLAND AND SKIN OF EAR): SQUAMOUS CELL CA); “active; positive” (Species: RAT, Strain/Sex: F344/MALE, Route: GAVAGE, ORAL, Dose: 0, 1500, 3000 MG/KG FOR 22 WK, THEN 22000, 44000 PPM IN DIET FOR 56 WK (STUDY DURATION: 104 WK), Dose: 0, 1500, 3000 MG/KG FOR 22 WK, THEN 22000, 44000 PPM IN DIET FOR 56 WK (STUDY DURATION: 104 WK), Tumor Site: Type of Lesion: INTEGUMENTARY SYSTEM (SKIN (EXCLUDING SKIN OF EAR)): PAPILLOMA (NOS) OR BASAL CELL TUMOR OR TRICHOEPITHELIOMA OR SEBACEO).
In the case of `CN(C)N`, the carcinogen call (Species: HAMSTER, Strain/Sex: SYRIAN/FEMALE, Route: SUBCUTANEOUS, Dose: 0, 8, 17, 35 MG/KG BW IN 0.9% SALINE 1/WK FOR LIFE (STUDY DURATION: LIFE SPAN), Dose: 0, 8, 17, 35 MG/KG BW IN 0.9% SALINE 1/WK FOR LIFE (STUDY DURATION: LIFE SPAN)) was “inactive; negative”; the carcinogen call (Species: HAMSTER, Strain/Sex: SYRIAN/MALE, Route: SUBCUTANEOUS, Dose: 0, 8, 17, 35 MG/KG BW IN 0.9% SALINE 1/WK FOR LIFE (STUDY DURATION: LIFE SPAN), Dose: 0, 8, 17, 35 MG/KG BW IN 0.9% SALINE 1/WK FOR LIFE (STUDY DURATION: LIFE SPAN)) was “inactive; negative”; the carcinogen call (Species: MOUSE, Route: ORAL, Tumor Site: Type of Lesion: LUNG, BLOOD VESSELS, LIVER, KIDNEY, Tumor Site: Type of Lesion: LUNG, BLOOD VESSELS, LIVER, KIDNEY) was “active; positive”.
For the molecule `CNC(=O)c1c(N(C)N=O)ncn1C`, under “Species: RAT, Strain/Sex: BD-IX/MALE, FEMALE, Route: ORAL, Dose: 0, 3, 5, 15 MG/KG/D IN DRINKING WATER 5D/WK FOR DURATION OF STUDY (STUDY DURATION: LIFETIME), Dose: 0, 3, 5, 15 MG/KG/D IN DRINKING WATER 5D/WK FOR DURATION OF STUDY (STUDY DURATION: LIFETIME), Tumor Site: Type of Lesion: NASAL CAVITY: TUMOR”, the carcinogen call is “active; positive”.
For the molecule `Cn1cc(-c2ccccc2)c(=O)c(-c2cccc(C(F)(F)F)c2)c1`, the carcinogen call is “inactive; negative. (possible increased incidence of skin fibrosarcomas in high dose femal” (Species: Mouse, Strain/Sex: ICR/Female (60?/Group), Route: Oral, Dose: 0, 33, 100, 330 ppm (0; 4.0; 12.3; 34.5 mg/kg/day) of 97.2-97.8% fluridone in diet for 2 yr, study duration 2 yr, Dose: 0, 33, 100, 330 ppm (0; 4.0; 12.3; 34.5 mg/kg/day) of 97.2-97.8% fluridone in diet for 2 yr, study duration 2 yr); “inactive; negative” (Species: Mouse, Strain/Sex: ICR/Male (60?/Group), Route: Oral, Dose: 0, 33, 100, 330 ppm (0; 3.5; 10.9; 30.7 mg/kg/day) of 97.2-97.8% fluridone in diet for 2 yr, study duration 2 yr, Dose: 0, 33, 100, 330 ppm (0; 3.5; 10.9; 30.7 mg/kg/day) of 97.2-97.8% fluridone in diet for 2 yr, study duration 2 yr); “inactive; negative” (Species: Rat, Strain/Sex: Fischer 344/Female (60/Group), Route: Oral, Dose: 0, 200, 650, 2000 ppm of 97.2-97.8% fluridone in diet for 2 yr, study duration 2 yr, Dose: 0, 200, 650, 2000 ppm of 97.2-97.8% fluridone in diet for 2 yr, study duration 2 yr); “inactive; negative” (Species: Rat, Strain/Sex: Fischer 344/Male (60/Group), Route: Oral, Dose: 0, 200, 650, 2000 ppm of 97.2-97.8% fluridone in diet for 2 yr, study duration 2 yr, Dose: 0, 200, 650, 2000 ppm of 97.2-97.8% fluridone in diet for 2 yr, study duration 2 yr).
Take `CCCCOCCO`: the carcinogen call (Species: MOUSE, Strain/Sex: B6C3F1/FEMALE, Route: INHALATION, Dose: 0, 62.5, 125, 250 PPM 6 HR/D 5D/WK FOR 104 WK (STUDY DURATION: 104 WK), Dose: 0, 62.5, 125, 250 PPM 6 HR/D 5D/WK FOR 104 WK (STUDY DURATION: 104 WK), Tumor Site: Type of Lesion: FORESTOMACH: SQUAMOUS CELL PAPILLOMA OR CARCINOMA) is “active; positive”; the carcinogen call (Species: MOUSE, Strain/Sex: B6C3F1/MALE, Route: INHALATION, Dose: 0, 62.5, 125, 250 PPM 6 HR/D 5D/WK FOR 104 WK (STUDY DURATION: 104 WK), Dose: 0, 62.5, 125, 250 PPM 6 HR/D 5D/WK FOR 104 WK (STUDY DURATION: 104 WK), Tumor Site: Type of Lesion: LIVER: HEMANGIOSARCOMA, HEPATOCELLULAR CARCINOMA) is “active; positive”; the carcinogen call (Species: RAT, Strain/Sex: F344/FEMALE, Route: INHALATION, Dose: 0, 31.2, 62.5, 125 PPM 6 HR/D 5D/WK FOR 104 WK (STUDY DURATION: 104 WK), Dose: 0, 31.2, 62.5, 125 PPM 6 HR/D 5D/WK FOR 104 WK (STUDY DURATION: 104 WK), Tumor Site: Type of Lesion: ADRENAL MEDULLA: BENIGN OR MALIGNANT PHEOCHROMOCYTOMA) is “equivocal”; the carcinogen call (Species: RAT, Strain/Sex: F344/MALE, Route: INHALATION, Dose: 0, 31.2, 62.5, 125 PPM 6 HR/D 5D/WK FOR 104 WK (STUDY DURATION: 104 WK), Dose: 0, 31.2, 62.5, 125 PPM 6 HR/D 5D/WK FOR 104 WK (STUDY DURATION: 104 WK)) was “inactive; negative”.
In the case of `COS(=O)(=O)OC`, the carcinogen call was “active; positive” (Species: RAT, Route: INHALATION, Tumor Site: Type of Lesion: NASAL CAVITY, BRAIN) and “active; positive” (Species: RAT, Route: SUBCUTANEOUS, Tumor Site: Type of Lesion: INJECTION SITE).
With `CN(C)c1ccc2nc3ccc(=[N+](C)C)cc-3sc2c1`, the carcinogen call is “equivocal” (Species: Mouse, Strain/Sex: B6C3F1/Female, Route: Oral, Dose: 0, 2.5, 12.5, 25 mg/kg 5 d per wk for 2 yr, Dose: 0, 2.5, 12.5, 25 mg/kg 5 d per wk for 2 yr, Tumor Site: Type of Lesion: Lymphatic system: Malignant lymphomas (6/50; 4/50; 9/50; 12/50) (Marginal increase)); “active; positive (for lymphoma only at high does) (ntp describes results as some evidenc” (Species: Mouse, Strain/Sex: B6C3F1/Male, Route: Oral, Dose: 0, 2.5, 12.5, 25 mg/kg 5 d per wk for 2 yr, Dose: 0, 2.5, 12.5, 25 mg/kg 5 d per wk for 2 yr, Tumor Site: Type of Lesion: Small intestine: Carcinomas (0/50; 1/50; 2/50; 4/50), Adenomas or carcinomas (1/50; 2/50; 4/50; 6/50) (incidences not st, Tumor Site: Type of Lesion: Small intestine: Carcinomas (0/50; 1/50; 2/50; 4/50), Adenomas or carcinomas (1/50; 2/50; 4/50; 6/50) (incidences not st); “inactive; negative” (Species: Rat, Strain/Sex: F344/Female, Route: Oral, Dose: 0, 5, 25, 50 mg/kg 5 d per wk for 2 yr, Dose: 0, 5, 25, 50 mg/kg 5 d per wk for 2 yr); “active; positive (statistically significant only at 25 mg/kg dose) (ntp describes as som” (Species: Rat, Strain/Sex: F344/Male, Route: Oral, Dose: 0, 5, 25, 50 mg/kg 5 d per wk for 2 yr, Dose: 0, 5, 25, 50 mg/kg 5 d per wk for 2 yr, Tumor Site: Type of Lesion: Pancreas: Pancreatic islet adenomas (4/50; 9/50; 12/50; 8/50), Pancreatic islet adenomas or carcinomas (4/50, 9/50, 14/5, Tumor Site: Type of Lesion: Pancreas: Pancreatic islet adenomas (4/50; 9/50; 12/50; 8/50), Pancreatic islet adenomas or carcinomas (4/50, 9/50, 14/5).
Consider `CC1=CC(C)(C)N(N=O)c2ccccc21`, for which the carcinogen call (Species: RAT, Strain/Sex: CB/MALE, Route: INTRAPERITONEAL, Dose: 0, 25 MG IN POLYETHYLENE GLYCOL 400 1/WK FOR 6 MO FOR A TOTAL DOSE OF 0, 650 MG (STUDY DURATION: 24 MO), Dose: 0, 25 MG IN POLYETHYLENE GLYCOL 400 1/WK FOR 6 MO FOR A TOTAL DOSE OF 0, 650 MG (STUDY DURATION: 24 MO), Tumor Site: Type of Lesion: PERITONEUM: SARCOMA) is “active; positive”.
